Data from patent publication US20040072907A1, “Antipicornaviral compounds, compositions containing them, and methods for their use” (priority 1997, published 2004).
Where two headings read alike, the source gives them in different places.

Columns and labels:
[1] = target: T1, Recombinant Rhinovirus 3C protease serotype 14 (Human rhinovirus 14, UniProt P03303); assay: biochemical; details: RVP serotype-14, progress curves, enzyme start experiments
T1 construct: Recombinant Rhinovirus 3C proteases from serotypes 14, 16, and 2; made in house
Method: Stock solutions (50 mM, in DMSO) of various compounds were prepared; dilutions were in the same solvent. […] Assays contained 2% DMSO, 50 mM tris pH 7.6, 1 mM EDTA, a compound at the indicated concentrations, approximately 1 μM substrate, and 50-100 nM protease. […] The kobs/I values were obtained from reactions initiated by addition of enzyme rather than substrate. RVP activity is measured in the fluorescence resonance energy transfer assay. […] In the uncleavaed peptide, the EDANS fluorescence was quenched by the proximal DABCYL moiety. When the peptide was cleaved, the quenching was relieved, and activity was measured as an increase in fluorescence signal.
The data in the column designated kobs/I was measured from progress curves enzyme start experiments.

HRV serotype-14 = assay: Antirhinoviral HI-HeLa cell culture assay (XTT cell protection), HRV-14; format: cell-based, human rhinovirus
Method: (§1) In the Cell Protection Assay, the ability of compounds to protect cells against HRV infection was measured by the XTT dye reduction method. This method is described in Weislow, O. S., Kiser, R., Fine, D. L., Bader, J., Shoemaker, R. H., Boyd, M. R., J. Natl. Cancer Inst. 1989, 81, 577-586, the disclosure of which is incorporated herein by reference.
(§2) Infected or mock-infected cells were resuspended at 8×10^5 cells per mL and incubated with appropriate concentrations of compounds of formula I. Two days later, XTT/PMS was added to test plates, and the amount of formazan produced was quantified spectrophotometrically at 450/650 nm. […] The therapeutic index (TI) was calculated by dividing the CC50 by the EC50.
(§3) All strains of human rhinovirus (HRV) for use in this assay were purchased from American Type Culture Collection (ATCC) except for HRV serotype-14, which was produced from the infectious cDNA clone constructed and supplied to Applicants by Dr. Robert Rueckert at the Institute for Molecular Virology, University of Wisconsin, Madison, Wis. HRV stocks were propagated, and viral assays were performed in HI-HeLa cells (ATCC). Cells were grown in Minimal Essential Medium, available from Life Technologies, with 10% fetal bovine serum.
(§4) The compounds were tested against control compounds WIN 51711, WIN 52084, and WIN 54954, all obtained from Sterling-Winthrop Pharmaceuticals, and control compound Pirodavir, obtained from Janssen Pharmaceuticals. Antiviral data obtained for the test compounds are shown in Table 2 where all data are for HRV serotype-14 unless otherwise noted in parentheses.

[2] = Cytotoxicity in mock-infected HI-HeLa cells (XTT, antirhinoviral assay); format: cell-based; details: human; mock-infected HI-HeLa cells; line for HRV serotype-14
Method: as §1, §2
(§5) HRV stocks were propagated, and viral assays were performed in HI-HeLa cells (ATCC). Cells were grown in Minimal Essential Medium, available from Life Technologies, with 10% fetal bovine serum.

HI-HeLa cells [3] = assay: as above; format: cell-based; details: mock-infected HI-HeLa cells, read-out: CC50
Method: as §1, §2, §5

HI-HeLa cells [4] = assay: Cytotoxicity in uninfected HI-HeLa cells (XTT, anticoxsackieviral assay); format: cell-based; details: one day
Method: (§6) The Coxsackie strain A-21 (CVA-21) was purchased from American Type Culture Collection (ATCC). Virus stocks were propagated, and antiviral assays were performed in HI-HeLa cells (ATCC). Cells were grown in Minimal Essential Medium with 10% fetal bovine serum.
(§7) The ability of compounds to protect cells against CVA-21 infection was measured by the XTT dye reduction method. This method is described in Weislow, O. S., Kiser, R., Fine, D. L., Bader, J., Shoemaker, R. H., Boyd, M. R., J. Natl. Cancer Inst. 1989, 81, 577-586, the disclosure of which is incorporated herein by reference. HI-HeLa cells were infected with CVA-21 at a multiplicity of infection (m.o.i.) of 0.05 (CVA-21) or mock-infected with medium only. Infected or uninfected cells were resuspended at 4×10^4 cells per mL and incubated with appropriate concentrations of drug. One day later, XTT/PMS was added to test plates, and the amount of formazan produced was quantified spectrophotometrically at 450/650 nm. […] The therapeutic index (TI) was calculated by dividing the CC50 by the EC50.

HRV serotype 2 = assay: Antirhinoviral HI-HeLa cell culture assay (XTT cell protection), HRV-2; format: cell-based, human rhinovirus; details: HRV serotype 2, HI-HeLa cells
Method: as §1, §2, §3, §4

HRV serotype 10 = assay: Antirhinoviral HI-HeLa cell culture assay (XTT cell protection), HRV-10; format: cell-based, human rhinovirus; details: HRV serotype 10, HI-HeLa cells
Method: as §1, §2, §3, §4

HRV serotype 1A = assay: Antirhinoviral HI-HeLa cell culture assay (XTT cell protection), HRV-1A; format: cell-based, human rhinovirus; details: HI-HeLa cells
Method: as §1, §2, §3, §4

HRV serotype 89 = assay: Antirhinoviral HI-HeLa cell culture assay (XTT cell protection), HRV-89; format: cell-based, human rhinovirus; details: HRV serotype 89, HI-HeLa cells
Method: as §1, §2, §3, §4

HRV serotype 39 = assay: Antirhinoviral HI-HeLa cell culture assay (XTT cell protection), HRV-39; format: cell-based, human rhinovirus; details: HRV serotype 39, HI-HeLa cells
Method: as §1, §2, §3, §4

HRV serotype 16 = assay: Antirhinoviral HI-HeLa cell culture assay (XTT cell protection), HRV-16; format: cell-based, human rhinovirus; details: HRV serotype 16, HI-HeLa cells
Method: as §1, §2, §3, §4

[5] = system: Coxsackie strain A-21 (CVA-21); assay: Anticoxsackieviral HI-HeLa cell culture assay (XTT cell protection); format: cell-based; details: CVA-21, HI-HeLa cells, m.o.i. 0.05, one day
Method: as §6
as §7, with “HI-HeLa cells were infected with CVA-21 at a multiplicity of infection (m.o.i.) of 0.05 (CVA-21) or mock-infected with medium only.” left out
The compounds were tested against control compound WIN 54954, obtained from Sterling-Winthrop Pharmaceuticals, and control compound Pirodavir, obtained from Janssen Pharmaceuticals.

[6] = Cytotoxicity in uninfected HI-HeLa cells (XTT, anticoxsackieviral assay); format: cell-based; details: human, one day
Method: as §6, §7

[7] = HRV serotype-14, HI-HeLa cells, m.o.i. 0.13, two days, XTT, read-out: EC50

T1 sequence (P03303 1538-1719): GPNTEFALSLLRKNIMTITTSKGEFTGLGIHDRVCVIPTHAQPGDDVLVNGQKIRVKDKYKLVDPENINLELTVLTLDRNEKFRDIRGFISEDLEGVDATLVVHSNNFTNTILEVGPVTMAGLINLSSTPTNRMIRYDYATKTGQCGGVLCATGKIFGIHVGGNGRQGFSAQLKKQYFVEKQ

Compound	CC50 (HI-HeLa cells [3]; line for HRV serotype 2)	CC50 (HI-HeLa cells [3]; line for HRV serotype 10)	CC50 (HI-HeLa cells [3]; line for HRV serotype 39)	CC50 (HI-HeLa cells [3]; line for HRV serotype 89)	EC50 (HRV serotype-14; [7])	EC50 (HRV serotype 2)	EC50 (HRV serotype 10)	EC50 (HRV serotype 1A)	CC50 (HI-HeLa cells [3]; line for HRV serotype 1A)	CC50 (HI-HeLa cells [3]; line for HRV serotype-14)	EC50 (HRV serotype 89)	EC50 (HRV serotype 16)	further results
CC(C)CC(NC(=O)SCc1ccccc1)C(=O)CC(Cc1ccccc1)C(=O)NC(C=CC(=O)N1CCc2ccccc21)CCC(N)=O [Compound 3, (2,3-Dihydroindole)-3-(BnSCO-L-LeuΨ[COCH2]-L-Phe-L-Gln)-E-Propenamide]	–	–	–	–	–	–	–	–	–	–	–	–	kinact/KI ([1]; read-out: kobs/I): 29200 M⁻¹ s⁻¹; EC50 (HRV serotype-14; Human rhinovirus sp., 48 h): 1.9 µM; CC50 at 2 days [2]: 50.1 µM
CCOC(=O)/C=C/C(CCC(N)=O)NC(=O)C(CC(=O)C(NC(=O)SC1CCCC1)C(C)C)Cc1ccccc1 [Compound 7, Ethyl-3-(CyPentylSCO-L-ValΨ[COCH2]-L-Phe-L-Gln)-E-Propenoate]	> 10 µM	> 10 µM	> 10 µM	> 10 µM	–	–	–	–	–	–	–	–	CC50 (HI-HeLa cells [4]): > 10 µM
CCOC(=O)/C=C/C(CCC(N)=O)NC(=O)C(CC(=O)C(CC(C)C)NC1CCCC1)Cc1ccc(F)cc1 (stereo not drawn) [Compound 19]	> 3 µM	> 3 µM	–	–	0.28 µM	0.71 µM	1.6 µM	0.6 µM	> 3 µM	> 3 µM	–	–	kobs/I [1]: 67,200 M^−1sec^−1
CCOC(=O)/C=C/C(CCC(N)=O)NC(=O)C(CC(=O)C(NC(=O)OC1CCCC1)C(C)C)Cc1ccc(C)cc1 (stereo not drawn) [Compound 20]	> 3 µM	> 3 µM	> 3 µM	> 3 µM	0.042 µM	0.56 µM	–	0.53 µM	> 3 µM	> 3 µM	0.47 µM	0.15 µM	EC50 (HRV serotype 39): 1.2 µM; CC50 (HI-HeLa cells [3]; line for HRV serotype 16): > 3 µM
CCOC(=O)/C=C/C(CCC(N)=O)NC(=O)C(CC(=O)C(CC(C)C)NC(=O)SC1CCCC1)Cc1ccc(C)cc1 [Compound 21, Ethyl-3-(CyPentylSCO-L-LeuΨ[COCH2]-L-(p-CH3)Phe-L-Gln)-E-Propenoate]	> 10 µM	> 10 µM	–	–	–	1 µM	1.4 µM	0.56 µM	> 10 µM	> 10 µM	–	–	–
CCOC(=O)/C=C/[C@H](CCC(N)=O)NC(=O)[C@@H](CC(=O)[C@@H](NC(=O)OC1CCCC1)C(C)C)Cc1ccc(F)cc1 [Compound 25, Ethyl-3-(CyPentylOCO-L-ValΨ[COCH2]-L-(p-F)Phe-L-Gln)-E-Propenoate]	> 3 µM	> 3 µM	> 3 µM	> 3 µM	0.14 µM	–	1.7 µM	0.9 µM	> 3 µM	> 3 µM	0.32 µM	0.71 µM	EC50 (HRV serotype 39): 0.56 µM; CC50 (HI-HeLa cells [3]; line for HRV serotype 16): > 3 µM
CCOC(=O)c1ccc(OCCC2CCN(c3ccc(C)nn3)CC2)cc1 [Pirodavir, reference compound]	–	–	–	–	–	–	–	–	–	–	–	–	EC50 (HRV serotype-14; Human rhinovirus sp., 48 h, HRV serotype-14, HI-HeLa cells, m.o.i. 0.13, two days, XTT, read-out: EC50): 0.03 µM; CC50 at 2 days [2]: > 10 µM; EC50 ([5]; 24 h): > 100 µM; CC50 at 1 day [6]: > 100 µM
Cc1cc(CCCCCOc2c(Cl)cc(C3=NCCO3)cc2Cl)on1 [WIN 54954, reference compound]	–	–	–	–	2.13 µM	–	–	–	–	> 63 µM	–	–	EC50 [5]: > 100 µM; CC50 (HI-HeLa cells [4]): > 100 µM
Ethyl-3-(CBZ-L-LeuΨ[COCH2]-D/L-Phe-L-Gln)-E-Propenoate [Compound 1 + 9 (˜1:1)]	–	–	–	–	1.3 µM	2 µM	4.1 µM	–	–	–	5.1 µM	2.8 µM	–
